From ChEMBL document CHEMBL1201862, “PubChem BioAssay data set” (2004)
Several values for one entry are separate records, joined by “and”; a condition that tells them apart may be missing. Equal values may be shown once.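 How tested: cells in 96-well plates exposed to compound for 48 hours at five concentrations. GI50 is the concentration that inhibits growth by half.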 Activity calls are given as the source filed them. Cut-off read from the data, not from the text of the source: active = GI50 up to about 1.1 µM and inactive = higher.

Tests used:
Assay in all cases: DTP human tumour cell line panel, 48 h
COLO 205 = test system: COLO 205
UO-31 = test system: UO-31
786-0 = test system: 786-0
SW-620 = test system: SW-620
ACHN = test system: ACHN
OVCAR-8 = test system: OVCAR-8
LOX IMVI = test system: LOX IMVI
MDA-MB-231 = test system: MDA-MB-231
CAKI-1 = test system: CAKI-1
CCRF-CEM = test system: CCRF-CEM
SN12C = test system: SN12C
MOLT-4 = test system: MOLT-4
NCI-H522 = test system: NCI-H522
NCI-H23 = test system: NCI-H23
M14 = test system: M14
HCT-116 = test system: HCT-116
TK-10 = test system: TK-10
MDA-MB-435 = test system: MDA-MB-435
RXF 393 = test system: RXF 393
SR = test system: SR

Measured: GI50

Fc1ccc(C(OCCN2CC3CCC(C2)N3CCCc2ccccc2)c2ccc(F)cc2)cc1
inactive: COLO 205 1.41 µM | UO-31 7.33 µM | 786-0 3.62 µM | SW-620 3.54 µM | ACHN 10.6 µM | OVCAR-8 2.3 µM | LOX IMVI 3.89 µM | MDA-MB-231 2.74 µM | CAKI-1 6.22 µM | CCRF-CEM 2.71 µM | SN12C 3.81 µM | MOLT-4 2.79 µM | NCI-H522 2.17 µM | NCI-H23 4.25 µM | M14 2.48 µM | HCT-116 2.93 µM | TK-10 11.7 µM | MDA-MB-435 2.13 µM

COc1ccc(-c2oc3c(OC)c(OC)cc(O)c3c(=O)c2OC)cc1
inactive: COLO 205 > 100 µM | UO-31 > 100 µM | 786-0 > 100 µM | SW-620 > 100 µM | ACHN > 100 µM | OVCAR-8 > 100 µM | LOX IMVI 65 µM | MDA-MB-231 69.2 µM | CAKI-1 > 100 µM | CCRF-CEM > 100 µM | SN12C > 100 µM | MOLT-4 > 100 µM | NCI-H522 54.8 µM | NCI-H23 > 100 µM | M14 > 100 µM | RXF 393 > 100 µM | HCT-116 46.5 µM | TK-10 > 100 µM | MDA-MB-435 > 100 µM

Cc1nc2ccc(NC3OC(CO)C(O)C(O)C3O)cc2c(=O)n1-c1ccccc1 (stereo not given)
inactive: COLO 205 > 100 µM | UO-31 > 100 µM | 786-0 > 100 µM | SW-620 > 100 µM | ACHN > 100 µM | OVCAR-8 > 100 µM | LOX IMVI > 100 µM | MDA-MB-231 > 100 µM | CAKI-1 > 100 µM | SN12C > 100 µM | MOLT-4 > 100 µM and > 99.3 µM | NCI-H522 > 100 µM | NCI-H23 > 100 µM | RXF 393 > 100 µM | HCT-116 > 100 µM | TK-10 > 100 µM | MDA-MB-435 > 100 µM

O=C1/C(=C/c2ccc(Cl)cc2)CSC/C1=C\c1ccc(Cl)cc1
inactive: COLO 205 3.02 µM | SR 2.69 µM | UO-31 1.92 µM | 786-0 3.08 µM | SW-620 3.15 µM | ACHN 3.8 µM | OVCAR-8 3.54 µM | LOX IMVI 1.91 µM | MDA-MB-231 4.17 µM | CAKI-1 4.06 µM | CCRF-CEM 2.68 µM | SN12C 3.39 µM | MOLT-4 2.61 µM | NCI-H522 4.99 µM | NCI-H23 2.9 µM | M14 1.84 µM | RXF 393 1.35 µM | HCT-116 1.76 µM | TK-10 3.18 µM

COc1ccc(CNC(=O)[C@H](Cc2ccc(O)cn2)NC(C)=O)cc1
inactive: COLO 205 > 100 µM | SR > 100 µM | UO-31 > 100 µM | 786-0 > 100 µM | SW-620 > 100 µM | ACHN > 100 µM | LOX IMVI > 100 µM | CAKI-1 > 100 µM | CCRF-CEM > 100 µM | SN12C > 100 µM | MOLT-4 > 100 µM | NCI-H522 > 100 µM | NCI-H23 > 100 µM | M14 > 100 µM | RXF 393 > 100 µM | HCT-116 89.3 µM | TK-10 > 100 µM | MDA-MB-435 > 100 µM

CNC(=O)C1(C#N)C(c2ccccc2)C(C#N)(C(=O)NC)C1c1ccccc1 (stereo not given)
inactive: COLO 205 > 100 µM | SR > 100 µM | UO-31 > 100 µM | 786-0 > 100 µM | SW-620 > 100 µM | ACHN > 100 µM | OVCAR-8 > 100 µM | LOX IMVI > 100 µM | CAKI-1 > 100 µM | CCRF-CEM > 100 µM | SN12C > 100 µM | MOLT-4 > 100 µM | NCI-H522 > 100 µM | NCI-H23 > 100 µM | M14 > 100 µM | HCT-116 > 100 µM | TK-10 > 100 µM | MDA-MB-435 > 100 µM

Oc1cc(O)cc(-c2nc3cc(F)ccc3s2)c1
inactive: COLO 205 21 µM | UO-31 24 µM | 786-0 20.6 µM | SW-620 38.1 µM | ACHN 24.7 µM | OVCAR-8 22.6 µM | LOX IMVI 18.5 µM | MDA-MB-231 25.6 µM | CAKI-1 25.5 µM | CCRF-CEM 27.5 µM | SN12C 29.4 µM | NCI-H522 18.7 µM | NCI-H23 26.4 µM | M14 19.4 µM | RXF 393 22.7 µM | HCT-116 24.5 µM | TK-10 30.3 µM | MDA-MB-435 30.5 µM

CCOC(=O)C1(C#N)C(=O)c2cc[n+](CC[n+]3ccc4c(c3)C(=O)C(C#N)(C(=O)OCC)C4=O)cc2C1=O (stereo not given)
inactive: COLO 205 > 10 µM | UO-31 > 100 µM | 786-0 > 100 µM | SW-620 > 100 µM | ACHN > 100 µM | OVCAR-8 > 100 µM | LOX IMVI 74.1 µM | MDA-MB-231 60.5 µM | CAKI-1 > 100 µM | CCRF-CEM > 100 µM | SN12C > 100 µM | MOLT-4 > 100 µM | NCI-H522 > 100 µM | NCI-H23 > 100 µM | M14 > 100 µM | RXF 393 > 100 µM | HCT-116 > 100 µM | MDA-MB-435 > 100 µM
